Measurements as given in publication PMC11283233, “A comparative analysis of NADPH supply strategies in Saccharomyces cerevisiae: Production of D-xylitol from D-xylose as a case study” (Metabolic Engineering Communications, 2024).

What was measured:
[1] = molecular target: T1, Xyl1 (coXYL1) (Scheffersomyces stipitis, UniProt P31867); assay: xylitol formation in cells, HPLC, versus empty vector; type: cell-based; conditions: whole-cell fermentation, SC medium, 30 g/L glucose, 20 g/L xylose, 30 °C; NADPH-dependent
T1 construct: full-length, codon-optimized gene on p425H7, expressed in S. cerevisiae PRY39 (gre3 deleted); intact cells
T1 sequence (P31867 1-318): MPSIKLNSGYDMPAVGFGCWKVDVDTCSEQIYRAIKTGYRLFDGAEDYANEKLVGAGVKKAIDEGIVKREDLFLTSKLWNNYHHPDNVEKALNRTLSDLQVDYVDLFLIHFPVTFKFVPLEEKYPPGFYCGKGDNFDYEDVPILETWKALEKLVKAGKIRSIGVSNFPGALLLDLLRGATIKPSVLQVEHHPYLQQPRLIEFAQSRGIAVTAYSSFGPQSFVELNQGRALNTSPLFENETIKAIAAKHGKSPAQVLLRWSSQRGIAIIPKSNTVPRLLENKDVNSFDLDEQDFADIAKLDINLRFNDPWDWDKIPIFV

[2] = molecular target: T2, Gre3 (coGRE3, ScGRE3) (Saccharomyces cerevisiae, UniProt P38715); assay: as above; type: cell-based; conditions: whole-cell fermentation, SC medium, 30 g/L glucose, 20 g/L xylose, 30 °C; NADPH-dependent
T2 construct: full-length, codon-optimized or native gene on p425H7, expressed in S. cerevisiae PRY39 (gre3 deleted); intact cells
T2 sequence (P38715 2-327): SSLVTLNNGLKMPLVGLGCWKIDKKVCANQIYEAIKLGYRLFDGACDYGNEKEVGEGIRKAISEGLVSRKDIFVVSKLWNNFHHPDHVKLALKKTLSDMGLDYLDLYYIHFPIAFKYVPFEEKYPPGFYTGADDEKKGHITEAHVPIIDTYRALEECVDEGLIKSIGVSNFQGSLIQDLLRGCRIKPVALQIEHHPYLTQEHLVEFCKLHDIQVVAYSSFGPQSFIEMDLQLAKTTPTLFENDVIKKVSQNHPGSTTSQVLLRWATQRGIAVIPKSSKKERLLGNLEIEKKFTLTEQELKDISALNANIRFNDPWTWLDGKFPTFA

[3] = molecular target: T3, Zwf1 (glucose-6-phosphate dehydrogenase) (Saccharomyces cerevisiae, UniProt P11412); assay: NADP+ reduction at […] nm, crude extract of overexpressing strain PRY63; type: biochemical; conditions: 2.5 mM glucose-6-phosphate, 0.67 mM NADP+, 50 mM imidazole pH 7.0, 100 mM KCl, 10 mM MgCl2, 0.1 mM EDTA
T3 construct: full-length, untagged; overexpressed from truncated HXT7 promoter at the genomic ZWF1 locus; crude yeast extract
T3 sequence (P11412 2-505): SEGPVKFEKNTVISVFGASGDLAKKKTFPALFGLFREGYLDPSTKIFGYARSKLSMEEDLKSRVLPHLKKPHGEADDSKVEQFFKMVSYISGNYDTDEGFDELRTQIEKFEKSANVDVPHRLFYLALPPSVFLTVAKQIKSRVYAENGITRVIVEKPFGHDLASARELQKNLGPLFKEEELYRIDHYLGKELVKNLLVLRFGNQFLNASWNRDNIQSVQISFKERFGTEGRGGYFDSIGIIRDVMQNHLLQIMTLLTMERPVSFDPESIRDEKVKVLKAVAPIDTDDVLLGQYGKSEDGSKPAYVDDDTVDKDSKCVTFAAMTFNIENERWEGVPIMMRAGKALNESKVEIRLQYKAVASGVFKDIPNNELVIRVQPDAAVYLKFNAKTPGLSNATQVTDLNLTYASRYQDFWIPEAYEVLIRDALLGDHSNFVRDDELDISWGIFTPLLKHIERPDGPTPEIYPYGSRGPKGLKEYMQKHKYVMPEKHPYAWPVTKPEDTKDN

[4] = molecular target: T4, Zwf1 (glucose-6-phosphate dehydrogenase) (Saccharomyces cerevisiae, UniProt P11412, DEL59-59); assay: NADP+ reduction at […] nm, crude extract of overexpressing strain PRY48 (ZWF1*); type: biochemical; conditions: 2.5 mM glucose-6-phosphate, 0.67 mM NADP+, 50 mM imidazole pH 7.0, 100 mM KCl, 10 mM MgCl2, 0.1 mM EDTA
T4 construct: full-length, untagged; overexpressed from truncated HXT7 promoter at the genomic ZWF1 locus; crude yeast extract
T4 sequence (P11412 with tags, fused parts or gaps DEL59-59): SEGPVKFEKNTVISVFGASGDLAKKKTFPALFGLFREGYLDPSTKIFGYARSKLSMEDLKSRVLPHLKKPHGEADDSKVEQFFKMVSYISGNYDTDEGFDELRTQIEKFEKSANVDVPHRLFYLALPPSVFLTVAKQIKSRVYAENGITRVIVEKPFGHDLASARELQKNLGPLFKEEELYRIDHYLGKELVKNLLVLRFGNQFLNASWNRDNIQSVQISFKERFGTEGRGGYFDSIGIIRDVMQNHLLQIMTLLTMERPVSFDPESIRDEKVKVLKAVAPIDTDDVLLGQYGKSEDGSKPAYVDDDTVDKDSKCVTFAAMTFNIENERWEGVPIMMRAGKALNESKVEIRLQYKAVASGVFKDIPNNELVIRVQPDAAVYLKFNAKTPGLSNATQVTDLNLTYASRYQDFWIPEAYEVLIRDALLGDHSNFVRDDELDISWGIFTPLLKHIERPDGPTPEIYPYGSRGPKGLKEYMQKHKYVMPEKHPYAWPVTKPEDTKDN

SMILES | xylitol formation in cells, HPLC, versus empty vector [1] | xylitol formation in cells, HPLC, versus empty vector [2] | NADP+ reduction at 340 nm, crude extract of overexpressing strain PRY63 [3] | NADP+ reduction at 340 nm, crude extract of overexpressing strain PRY48 (ZWF1*) [4]
OC1OC[C@@H](O)[C@H](O)[C@H]1O (some centres unmarked) [xylose] | The expression of all XR constructs led to considerably high xylitol titers | The expression of all XR constructs led to considerably high xylitol titers |  | 
O=P(O)(O)OC[C@H]1OC(O)[C@H](O)[C@@H](O)[C@@H]1O (some centres unmarked) [glucose-6-phosphate] |  |  | A G6PDH assay was performed in crude extracts from the engineered strains | 
NC(=O)c1ccc[n+]([C@@H]2O[C@H](COP(=O)(O)OP(=O)(O)OC[C@H]3O[C@@H](n4cnc5c(N)ncnc54)[C@H](OP(=O)(O)O)[C@@H]3O)[C@@H](O)[C@H]2O)c1 [NADP^+] |  |  | The reduction of NADP^+ was recorded by continuously measuring the change of the absorbance | the deletion of Glu59 apparently led to a higher Zwf1 activity
